ChEMBL document CHEMBL5608203, “Design, synthesis and biological evaluation of a new series of imidazothiazole-hydrazone hybrids as dual EGFR and Akt inhibitors for NSCLC therapy” (Eur J Med Chem, 2024)

How the values were obtained:
[1] = Cytotoxicity against human CCD 19Lu cells incubated for 24 hrs by MTT assay; assay type: toxicity, cell-based
A549 [2] = assay: cells; details: Homo sapiens, A549, 24 h
Description: Cytotoxicity against human A549 cells incubated for 24 hrs by MTT assay

A549 [3] = assay: Induction of cell cycle arrest at G2/M phase in human A549 cells at IC50 incubated for 24 hrs by PI staining based flow cytometry (reference value: 14.00 %); assay type: functional
A549 [4] = assay: Induction of apoptosis in human A549 cells assessed as viable cells at IC50 incubated for 24 hrs by Annexin V-FITC/PI staining based flow cytometry (reference value: 96.48 %); assay type: functional
A549 [5] = assay: Induction of apoptosis in human A549 cells assessed as late apoptotic cells at IC50 incubated for 24 hrs by Annexin V-FITC/PI staining based flow cytometry (reference value: 1.36 %); assay type: functional
A549 [6] = assay: Induction of apoptosis in human A549 cells assessed as necrotic cells at IC50 incubated for 24 hrs by Annexin V-FITC/PI staining based flow cytometry (reference value: 2.05 %); assay type: functional
A549 [7] = assay: Induction of cell cycle arrest at G0/G1 phase in human A549 cells at IC50 incubated for 24 hrs by PI staining based flow cytometry (reference value: 9.17 %); assay type: functional
A549 [8] = assay: Induction of apoptosis in human A549 cells assessed as early apoptotic cells at IC50 incubated for 24 hrs by Annexin V-FITC/PI staining based flow cytometry (reference value: 0.11 %); assay type: functional
A549 [9] = assay: Induction of apoptosis in human A549 cells assessed as caspase-3-positive cells at IC50 incubated for 24 hrs by flow cytometry (reference value: 1.50 %); assay type: functional
A549 [10] = assay: Induction of cell cycle arrest at S phase in human A549 cells at IC50 incubated for 24 hrs by PI staining based flow cytometry (reference value: 59.62 %); assay type: functional
A549 [11] = assay: Induction of apoptosis in human A549 cells assessed as caspase-3-negative cells at IC50 incubated for 24 hrs by flow cytometry (reference value: 98.49 %); assay type: functional

| Compound | IC50 (A549 [2]) [µM] | IC50 at 24 h [1] [µM] | Activity (A549 [3]) [%] | Activity (A549 [4]) [%] | Activity (A549 [5]) [%] | Activity (A549 [6]) [%] | Activity (A549 [7]) [%] | Activity (A549 [8]) [%] | Activity (A549 [9]) [%] | Activity (A549 [10]) [%] | Activity (A549 [11]) [%] |
| --- | --- | --- | --- | --- | --- | --- | --- | --- | --- | --- | --- |
| N#Cc1ccc(-c2cn3c(CC(=O)N/N=C/c4ccc(C(F)(F)F)cc4)csc3n2)cc1 | > 500 |  |  |  |  |  |  |  |  |  |  |
| CC(C)(C)c1ccc(/C=N/NC(=O)Cc2csc3nc(-c4ccc(C#N)cc4)cn23)cc1 | 22.5 | 66.5 | 20.92 | 79.17 | 5.13 | 0.32 | 3.91 | 15.38 | 4.14 | 48.94 | 95.41 |
| N#Cc1ccc(-c2cn3c(CC(=O)N/N=C/c4ccc(N5CCCC5)cc4)csc3n2)cc1 | > 500 |  |  |  |  |  |  |  |  |  |  |
| CC(C)c1ccc(/C=N/NC(=O)Cc2csc3nc(-c4ccc(C#N)cc4)cn23)cc1 | 15.5 | < 3.9 |  |  |  |  |  |  |  |  |  |
| N#Cc1ccc(-c2cn3c(CC(=O)N/N=C/c4ccc(Br)cc4)csc3n2)cc1 | > 500 |  |  |  |  |  |  |  |  |  |  |
| N#Cc1ccc(-c2cn3c(CC(=O)N/N=C/c4ccccc4)csc3n2)cc1 | 51.3 | > 500 | 16.14 | 87.52 | 3.76 | 0.02 | 7.37 | 8.7 | 3.97 | 38.28 | 95.65 |
| N#Cc1ccc(-c2cn3c(CC(=O)N/N=C/c4ccc5ccccc5c4)csc3n2)cc1 | > 500 |  |  |  |  |  |  |  |  |  |  |
| N#Cc1ccc(-c2cn3c(CC(=O)N/N=C/c4ccc(Cl)cc4)csc3n2)cc1 | > 500 |  |  |  |  |  |  |  |  |  |  |
| COc1ccc(/C=N/NC(=O)Cc2csc3nc(-c4ccc(C#N)cc4)cn23)cc1 | 14.3 | 51.7 | 10.28 | 73.36 | 4.42 | 0.24 | 5.65 | 21.98 | 2.58 | 68.81 | 97.08 |
| N#Cc1ccc(-c2cn3c(CC(=O)N/N=C/c4ccc(F)cc4)csc3n2)cc1 | 101 | 44.4 |  |  |  |  |  |  |  |  |  |
| N#Cc1ccc(-c2cn3c(CC(=O)N/N=C/c4ccc(Oc5ccc(F)cc5)cc4)csc3n2)cc1 | > 500 |  |  |  |  |  |  |  |  |  |  |
| N#Cc1ccc(-c2cn3c(CC(=O)N/N=C/c4ccc(N5CCOCC5)cc4)csc3n2)cc1 | 12.2 | 4.9 |  |  |  |  |  |  |  |  |  |
| C#Cc1cccc(Nc2ncnc3cc(OCCOC)c(OCCOC)cc23)c1 [ERLOTINIB] |  |  | 13.45 | 82.76 | 4.86 | 0.09 | 12.58 | 12.28 | 6.31 | 54.85 | 93.1 |
| CCn1c(-c2nonc2N)nc2c(C#CC(C)(C)O)ncc(OC[C@H]3CCCNC3)c21 [GSK-690693] | 11.8 |  | 13.5 | 36.36 | 18.78 | 1.86 | 30.35 | 43 | 24.29 | 27.55 | 73.93 |

Continued, in another order:

| IC50 (A549 [2]) [µM] | Compound | IC50 at 24 h [1] [µM] | Activity (A549 [3]) [%] | Activity (A549 [4]) [%] | Activity (A549 [5]) [%] | Activity (A549 [6]) [%] | Activity (A549 [7]) [%] | Activity (A549 [8]) [%] | Activity (A549 [9]) [%] | Activity (A549 [10]) [%] | Activity (A549 [11]) [%] |
| --- | --- | --- | --- | --- | --- | --- | --- | --- | --- | --- | --- |
| 87.5 | N#Cc1ccc(-c2cn3c(CC(=O)N/N=C/c4ccc(-n5cncn5)cc4)csc3n2)cc1 | > 500 |  |  |  |  |  |  |  |  |  |
| 23.8 | N#Cc1ccc(-c2cn3c(CC(=O)N/N=C/c4ccc(O)cc4)csc3n2)cc1 | > 500 | 26.23 | 92.05 | 4.03 | 3.89 | 4.95 | 0.03 | 2.36 | 32.15 | 97.42 |
| 43.7 | N#Cc1ccc(/C=N/NC(=O)Cc2csc3nc(-c4ccc(C#N)cc4)cn23)cc1 | > 500 | 12.95 | 62.71 | 14.85 | 0.11 | 13.81 | 22.33 | 34.94 | 43.76 | 63.66 |
| 17.7 | Cc1ccc(/C=N/NC(=O)Cc2csc3nc(-c4ccc(C#N)cc4)cn23)cc1 | 115 | 13.74 | 77.37 | 5.72 | 0.17 | 6.54 | 16.74 | 1.88 | 62.99 | 97.98 |
| > 500 | N#Cc1ccc(-c2cn3c(CC(=O)N/N=C/c4ccc(-c5ccccn5)cc4)csc3n2)cc1 |  |  |  |  |  |  |  |  |  |  |
| > 500 | N#Cc1ccc(-c2cn3c(CC(=O)N/N=C/c4ccc([N+](=O)[O-])cc4)csc3n2)cc1 |  |  |  |  |  |  |  |  |  |  |
| > 500 | N#Cc1ccc(Oc2ccc(/C=N/NC(=O)Cc3csc4nc(-c5ccc(C#N)cc5)cn34)cc2)cc1 |  |  |  |  |  |  |  |  |  |  |
| 16.9 | N#Cc1ccc(-c2cn3c(CC(=O)N/N=C/c4ccc(-n5ccnc5)cc4)csc3n2)cc1 | 1.44 |  |  |  |  |  |  |  |  |  |
| 221 | N#Cc1ccc(-c2cn3c(CC(=O)N/N=C/c4ccc(N5CCCCC5)cc4)csc3n2)cc1 | > 500 |  |  |  |  |  |  |  |  |  |
| > 500 | N#Cc1ccc(-c2cn3c(CC(=O)N/N=C/c4ccc(Oc5ccccc5)cc4)csc3n2)cc1 |  |  |  |  |  |  |  |  |  |  |
| 379 | CSc1ccc(/C=N/NC(=O)Cc2csc3nc(-c4ccc(C#N)cc4)cn23)cc1 | > 500 |  |  |  |  |  |  |  |  |  |
| 133 | CS(=O)(=O)c1ccc(/C=N/NC(=O)Cc2csc3nc(-c4ccc(C#N)cc4)cn23)cc1 | 160 |  |  |  |  |  |  |  |  |  |
| > 500 | N#Cc1ccc(-c2cn3c(CC(=O)N/N=C/c4ccc(Oc5ccc([N+](=O)[O-])cc5)cc4)csc3n2)cc1 |  |  |  |  |  |  |  |  |  |  |
| > 500 | N#Cc1ccc(-c2cn3c(CC(=O)N/N=C/c4ccc(Oc5ccc(Cl)cc5)cc4)csc3n2)cc1 |  |  |  |  |  |  |  |  |  |  |
| > 500 | N#Cc1ccc(-c2cn3c(CC(=O)N/N=C/c4ccc(Oc5ccc(Br)cc5)cc4)csc3n2)cc1 |  |  |  |  |  |  |  |  |  |  |
